Reference: patent US12570639B2, “Tetrahydroquinoline derivative and medicinal use thereof” (Toray Industries, Inc., priority 2020, dated 2026)
Structures can show the parent of a compound that is named as a salt.

system: Human fibrosarcoma cells (HT-1080 cells); experiment: In vitro inhibitory action against ferroptosis (Erastin-induced cell death, Cell Counting Kit-8); type: cell-based; conditions: evaluation concentration 10 μmol/L, Erastin 3 μmol/L, 24 hours
Description: The inhibitory action against ferroptosis of the tetrahydroquinoline derivative (I) or a pharmaceutically acceptable salt thereof was evaluated with Human fibrosarcoma cells (HT-1080 cells), by using, as an index, the inhibitory action against the cell death induced by treatment with a ferroptosis inducer, Erastin.
HT-1080 cells (ATCC) were cultured in a mixture (hereinafter referred to as vehicle) composed of DMEM/F12 (Thermo Fisher Scientific, Inc.), a final concentration of 10% fetal bovine serum (Thermo Fisher Scientific, Inc.), and a final concentration of 1% penicillin-streptomycin solution (Nacalai Tesque, Inc.). Cells were seeded into 96-well plates (Corning Inc.) at 5×10^4 cells/well and cultured overnight.
A test compound was dissolved in DMSO, and the resulting solution was diluted in the vehicle to a final concentration of 1% DMSO and then used. […] Thirty minutes after the addition of the test compound, Erastin (Cayman Chemical Co.) diluted in the vehicle at a final concentration of 3 μmol/L was added to wells. The wells added with the test compound and Erastin were grouped as “test compound,” and the wells added with no test compound and no Erastin were grouped as “background,” and the wells added with no test compound but with Erastin were grouped as “control.” Twenty-four hours after the addition of Erastin, 5 μL of Cell Counting Kit-8 (Dojindo Laboratories) was added to each well and incubated for 4 hours, and the absorbance at 450 nm was then measured for each well (N=2). […] Ferroptosis inhibition rate (%)=[1−{(Average absorbance value at 450 nm measured when a test compound is added)−(Average absorbance value at 450 nm measured in the background)}/{(Average absorbance value at 450 nm measured in the control)−(Average absorbance value at 450 nm measured in the background)}]×100 Equation 1

**Q.** For `Cc1ccc2c(c1)CCC(c1ccc(C(N)=O)cc1)N2` (stereo not shown) [Example 110, 4-(6-methyl-1,2,3,4-tetra-hydroquinolin-2-yl)benzamide], which “Ferroptosis inhibition rate (%)” value is on record?
**A.** 103.0%

**Q.** For `Cc1ccc2c(c1)CCC(c1ccc(C(N)=O)cc1)N2` (stereo not shown) [Example 111, 4-(6-methyl-1,2,3,4-tetrahydroquinolin-2-yl)benzamide], which “Ferroptosis inhibition rate (%)” value is on record?
**A.** 98.91%

same assay, conditions: evaluation concentration 25 μmol/L, Erastin 3 μmol/L, 24 hours

**Q.** With `Nc1ccc2c(c1)CCC(c1ccccc1)N2` (stereo not shown) [Example 64, 2-phenyl-1,2,3,4-tetrahydroquinoline-6-amine dihydrochloride] as the molecule, how does the “Ferroptosis inhibition rate (%)” value read?
**A.** 82.89%

**Q.** With `CC(C)(C)CC(=O)Nc1ccc2c(c1)CCC(c1ccccc1)N2` (stereo not shown) [Example 78, 3,3-dimethyl-N-(2-phenyl-1,2,3,4-tetrahydroquinolin-6-yl)butanamide] as the molecule, how does the “Ferroptosis inhibition rate (%)” value read?
**A.** 88.56%

same assay, conditions: evaluation concentration 30 μmol/L, Erastin 3 μmol/L, 24 hours

**Q.** Which “Ferroptosis inhibition rate (%)” value does the source give for `c1ccc2c(c1)CCC(c1cnco1)N2` (stereo not shown) [Example 65, 5-(1,2,3,4-tetrahydroquinolin-2-yl)oxazole] here?
**A.** 89.25%

**Q.** `Brc1ccc2c(c1)CCC(c1ccccc1)N2` (stereo not shown) [Example 70, 6-bromo-2-phenyl-1,2,3,4-tetrahydroquinoline] was tested. Which “Ferroptosis inhibition rate (%)” value did it give?
**A.** 97.10%

**Q.** For `OC1(c2ccc3c(c2)CCC(c2ccccc2)N3)COC1` (stereo not shown) [Example 71, 3-(2-phenyl-1,2,3,4-tetrahydroquinolin-6-yl)oxetan-3-ol], which “Ferroptosis inhibition rate (%)” value is on record?
**A.** 108.9%

**Q.** `c1ccc(C2CCc3cc(N4CCCCC4)ccc3N2)cc1` (stereo not shown) [Example 72, 2-phenyl-6-(piperidin-1-yl)-1,2,3,4-tetrahydroquinoline] was tested. Which “Ferroptosis inhibition rate (%)” value did it give?
**A.** 110.6%

**Q.** For `CC(C)(C)C(=O)Nc1ccc2c(c1)CCC(c1ccccc1)N2` (stereo not shown) [Example 74, N-(2-phenyl-1,2,3,4-tetrahydroquinolin-6-yl)pivalamide], which “Ferroptosis inhibition rate (%)” value is on record?
**A.** 85.08%

**Q.** `CS(=O)(=O)Nc1ccc2c(c1)CCC(c1ccccc1)N2` (stereo not shown) [Example 75, N-(2-phenyl-1,2,3,4-tetrahydroquinolin-6-yl)methanesulfonamide] was tested. Which “Ferroptosis inhibition rate (%)” value did it give?
**A.** 110.6%

**Q.** How did the “Ferroptosis inhibition rate (%)” value turn out when `NC(=O)Nc1ccc2c(c1)CCC(c1ccccc1)N2` (stereo not shown) [Example 77, 1-(2-phenyl-1,2,3,4-tetrahydroquinolin-6-yl)urea] was run?
**A.** 101.6%

**Q.** `Clc1cccc2c1NC(c1ccccc1)CC2` (stereo not shown) [Example 79, 8-chloro-2-phenyl-1,2,3,4-tetrahydroquinoline] was tested. Which “Ferroptosis inhibition rate (%)” value did it give?
**A.** 104.4%

**Q.** For `Fc1cccc2c1NC(c1ccccc1)CC2` (stereo not shown) [Example 80, 8-fluoro-2-phenyl-1,2,3,4-tetrahydroquinoline], which “Ferroptosis inhibition rate (%)” value is on record?
**A.** 103.9%

**Q.** For `CC1(c2ccccc2)CCc2ccccc2N1` (stereo not shown) [Example 91, 2-methyl-2-phenyl-1,2,3,4-tetrahydroquinoline], which “Ferroptosis inhibition rate (%)” value is on record?
**A.** 105.2%

**Q.** For `OCC1(c2ccccc2)CCc2ccccc2N1` (stereo not shown) [Example 92, (2-phenyl-1,2,3,4-tetrahydroquinolin-2-yl)methanol], which “Ferroptosis inhibition rate (%)” value is on record?
**A.** 66.40%

**Q.** Which “Ferroptosis inhibition rate (%)” value does the source give for `COC(=O)C1(c2ccccc2)CCc2ccccc2N1` (stereo not shown) [Example 93, methyl 2-phenyl-1,2,3,4-tetrahydroquinoline-2-carboxylate] here?
**A.** 89.78%

**Q.** With `COC(=O)CC1(c2ccccc2)CCc2ccccc2N1` (stereo not shown) [Example 94, 2-(2-phenyl-1,2,3,4-tetrahydroquinolin-2-yl)methyl acetate] as the molecule, how does the “Ferroptosis inhibition rate (%)” value read?
**A.** 93.68%

**Q.** Which “Ferroptosis inhibition rate (%)” value does the source give for `O=C1Cc2cc(C3CCc4cc(Cl)ccc4N3)ccc2N1` (stereo not shown) [Example 95, 5-(6-chloro-2,3,4,4-tetrahydroquinolin-2-yl)indolin-2-one] here?
**A.** 68.84%

**Q.** With `Clc1ccc2c(c1)CCC(c1cn[nH]c1)N2` (stereo not shown) [Example 96, 6-chloro-2-(1H-pyrazol-4-yl)-1,2,3,4-tetrahydroquinoline] as the molecule, how does the “Ferroptosis inhibition rate (%)” value read?
**A.** 98.01%

**Q.** For `Cc1ccc2c(c1)CCC(c1cn[nH]c1)N2` (stereo not shown) [Example 97, 6-methyl-2-(1H-pyrazol-4-yl)-1,2,3,4-tetrahydroquinoline], which “Ferroptosis inhibition rate (%)” value is on record?
**A.** 83.94%

**Q.** `Fc1ccc2c(c1)CCC(c1cn[nH]c1)N2` (stereo not shown) [Example 98, 6-fluoro-2-(1H-pyrazol-4-yl)-1,2,3,4-tetrahydroquinoline] was tested. Which “Ferroptosis inhibition rate (%)” value did it give?
**A.** 98.95%

**Q.** With `Cc1ccc2c(c1)CCC(c1ccc(S(N)(=O)=O)cc1)N2` (stereo not shown) [Example 100, 4-(6-methyl-1,2,3,4-tetrahydroquinolin-2-yl)benzenesulfonamide] as the molecule, how does the “Ferroptosis inhibition rate (%)” value read?
**A.** 103.5%

**Q.** How did the “Ferroptosis inhibition rate (%)” value turn out when `Cc1ccc2c(c1)CCC(c1ccc3c(c1)CCC(=O)N3)N2` (stereo not shown) [Example 101, 6-methyl-1,2,3,3′,4,4′-hexahydro-[2,6′-biquinolin]-2′(1′H)-one] was run?
**A.** 109.6%

**Q.** How did the “Ferroptosis inhibition rate (%)” value turn out when `Cc1ccc2c(c1)CCC(c1ccoc1)N2` (stereo not shown) [Example 102, 2-(furan-3-yl)-6-methyl-1,2,3,4-tetrahydroquinoline] was run?
**A.** 77.96%

**Q.** For `Cc1ccc2c(c1)CCC(c1cscn1)N2` (stereo not shown) [Example 103, 4-(6-methyl-1,2,3,4-tetrahydroquinolin-2-yl)thiazole], which “Ferroptosis inhibition rate (%)” value is on record?
**A.** 76.76%

**Q.** How did the “Ferroptosis inhibition rate (%)” value turn out when `Cc1ccc2c(c1)CCC(c1cnoc1)N2` (stereo not shown) [Example 104, 4-(6-methyl-1,2,3,4-tetrahydroquinolin-2-yl)isoxazole] was run?
**A.** 64.65%

**Q.** How did the “Ferroptosis inhibition rate (%)” value turn out when `Cc1ccc2c(c1)CCC(c1ccc(S(N)(=O)=O)c(F)c1)N2` (stereo not shown) [Example 113, 2-fluoro-4-(6-methyl-1,2,3,4-tetrahydroquinolin-2-yl)benzenesulfonamide] was run?
**A.** 97.54%

**Q.** For `Cc1ccc2c(c1)CCC(c1ccc(NS(N)(=O)=O)cc1)N2` (stereo not shown) [Example 114, N-(4-(6-methyl-1,2,3,4-tetrahydroquinolin-2-yl)phenyl)sulfamoylamine], which “Ferroptosis inhibition rate (%)” value is on record?
**A.** 87.04%

**Q.** `O=C1NCc2cc(C3CCc4ccccc4N3)ccc21` (stereo not shown) [Example 123, 5-(1,2,3,4-tetrahydroquinolin-2-yl)isoindolin-1-one] was tested. Which “Ferroptosis inhibition rate (%)” value did it give?
**A.** 113.4%

**Q.** For `O=C1NCc2cc(C3CCc4ccccc4N3)ccc21` (stereo not shown) [Example 124, 5-(1,2,3,4-tetrahydroquinolin-2-yl)isoindolin-1-one], which “Ferroptosis inhibition rate (%)” value is on record?
**A.** 106.3%

**Q.** For `O=C1CCc2cc(C3CCc4ccccc4N3)ccc2N1` (stereo not shown) [Example 125, 1,2,3,3′,4,4′-hexahydro-[2,6′-biquinolin]-2′(1′H)-one], which “Ferroptosis inhibition rate (%)” value is on record?
**A.** 102.6%

**Q.** Which “Ferroptosis inhibition rate (%)” value does the source give for `O=C1CCc2cc(C3CCc4ccccc4N3)ccc2N1` (stereo not shown) [Example 126, 1,2,3,3′,4,4′-hexahydro-[2,6′-biquinolin]-2′(1′H)-one] here?
**A.** 97.29%

same assay, conditions: evaluation concentration 50 μmol/L, Erastin 3 μmol/L, 24 hours

**Q.** Which “Ferroptosis inhibition rate (%)” value does the source give for `CC(=O)Nc1ccc2c(c1)CCC(c1ccccc1)N2` (stereo not shown) [Example 73, N-(2-phenyl-1,2,3,4-tetrahydroquinolin-6-yl)acetamide] here?
**A.** 88.18%

**Q.** `CC(C)(C)NC(=O)Nc1ccc2c(c1)CCC(c1ccccc1)N2` (stereo not shown) [Example 76, 1-(tert-butyl)-3-(2-phenyl-1,2,3,4-tetrahydroquinolin-6-yl)urea] was tested. Which “Ferroptosis inhibition rate (%)” value did it give?
**A.** 85.43%

**Q.** `FC(F)(F)c1ccc2c(c1)CCC(c1ccccc1)N2` (stereo not shown) [Example 84, 2-phenyl-6-(trifluoromethyl)-1,2,3,4-tetrahydroquinoline] was tested. Which “Ferroptosis inhibition rate (%)” value did it give?
**A.** 107.1%

**Q.** `Fc1cc(F)c2c(c1)CCC(c1ccccc1)N2` (stereo not shown) [Example 86, 6,8-difluoro-2-phenyl-1,2,3,4-tetrahydroquinoline] was tested. Which “Ferroptosis inhibition rate (%)” value did it give?
**A.** 98.80%

**Q.** For `CC(C)(C)NC(=O)Nc1ccc2c(c1)CCC(c1ccc(C(N)=O)cc1)N2` (stereo not shown) [Example 87, 4-(6-(3-(tert-butyl)ureido)-1,2,3,4-tetrahydroquinolin-2-yl)benzamide], which “Ferroptosis inhibition rate (%)” value is on record?
**A.** 95.20%
